Data on one compound can be found in US20240350402A1, “TOPICAL DRUG TREATMENT TO PREVENT OR REDUCE CORNEAL SCARRING” (The Cleveland Clinic Foundation, priority 2021, published 2024).

Data set [1] has as its system corneal neovascularization (CNV). As to the kind of experiment: Alkali burn model: central corneal neovascularization (corneal angiography). The note with it: four corneas in each group, topical six times per day, one month. In kind it is in vivo, rabbit. The protocol: Alkali injuries were produced in one eye of rabbits with previously published methods^10 using 1N sodium hydroxide (Sigma, St. Louis, MO) in balanced salt solution (BSS, 0.64% sodium chloride, 0.075% potassium chloride, 0.048% calcium chloride dihydrate, […] magnesium chloride hexahydrate, 0.39% sodium acetate trihydrate, 0.17% sodium citrate dihydrate, pH 7.5, Alcon, H. Worth, TX) and a 5 mm diameter circular Whatman No. 1 filter paper (Cat #1001-6508, Fisher Scientific) wetted with 100 μl of 1N NaOH solution. Following the alkali burn injury, the cornea was irrigated profusely with BSS. Each injured cornea also received one drop of ciprofloxacin (Alcon, Ft. Worth, TX, USA) ten minutes after surgery and four times a day for one week and at least 15 minutes apart from the study medications.
Worth TX), at least 5 minutes apart, or 4) 50 μl of BSS.
All corneas had fluorescent angiography at the peak of dye passage in the cornea immediately after injection of 1.5 ml of 10% sodium fluorescein (McKesson, Irvine, TX) in the central ear vein with the slit lamp system and digital camera system using a “barrier filter” that only transmitted 520-530 nm, the peak of fluorescein emission, with broad illumination of the cornea, as previously described.^11

A further data set has as its system collagen type IV. As to the kind of experiment: DMR model: IHC collagen type IV intensity in posterior stroma (ImageJ). The note with it: one month. In kind it is in vivo, rabbit. The protocol:
(§1) The rabbits had general anaesthesia with 30 mg/kg ketamine hydrochloride and 5 mg/kg xylazine by IM injection. In addition, topical proparacaine hydrochloride 1% (Alcon, Ft Worth, TX, USA) was applied to each eye prior to the surgery. One cornea selected at random in each group either had sham surgery without Descemetorhexis or an 8 mm diameter central Descemet's membrane-endothelial excision. The time point of one month after surgery was selected for the study because myofibroblasts and fibrosis in the posterior cornea was maximal at this time point in a prior time course Descemetorhexis study (Sampaio et al., 2021). Descemetorhexis was performed as described in the prior study (Sampaio et al., 2021). Briefly, a wire lid speculum was placed into one eye of each rabbit and an 8 mm diameter gentian violet circle was marked on the epithelial surface for reference. A limbal entry incision was created with a 1.6 mm blade (Bausch and Lomb, Rochester, NY, USA) and 0.3 ml Healon OVD (Abbott Medical Optics Inc. Santa Ana, CA, USA) was injected into the anterior chamber. A reversed Sinskey hook (Katena, Denville, New Jersey, USA) was placed into the anterior chamber and an 8 mm diameter disc of Descemet's membrane and endothelium was excised underlying the 8 mm area previously marked on the anterior corneal surface, without a subsequent endothelial corneal transplant. No removal of Descemet's membrane or endothelium was performed in unwounded sham surgery eyes. Remaining Healon OVD was removed with a Simcoe irrigation and aspiration cannula (Bausch & Lomb, Storz, Rochester, NY, USA) and the anterior chamber was filled with balanced salt solution (BSS). A single 10-0 nylon suture was placed at the incision site to prevent leakage from the anterior chamber. One drop of ciprofloxacin (Alcon, Ft. Worth, TX, USA) was applied to the corneas immediately after surgery and four times a day until the epithelium entry wound healed at approximately 2 days.
(§2) The oral solution was prepared with 5 ml distilled water+50 ml ora-plus (suspending vehicle—Perrigo, Dublin, Ireland)+45 ml Ora-sweet (flavored syrup vehicle—Perrigo).
Duplex immunohistochemistry (IHC) was performed after masking of slides by a researcher not involved in the analysis using previously described methods (de Oliveira et al., 2021) using primary antibodies (Table 2) confirmed by western blotting and IHC to recognize rabbit antigens or isotypic control antibodies (ThermoFisher Scientific, Waltham, MA), and secondary fluorescent tagged antibodies (Table 3).
The AB769 (Millipore, Temecula CA) collagen type IV antibody used in this study was generated against purified human and bovine collagen type IV, affinity purified with human and bovine collagen type IV crosslinked to agarose and cross-absorbed by the manufacturer with human and bovine collagens type I, II, III, V and VI to eliminate cross-reactivity. […]
Collagen type IV intensity in immunohistochemistry images was quantitated in 0.75 W×0.5H rectangles of posterior stroma tangent to the posterior corneal surface using ImageJ on 7.62 cm wide×5.69 cm height and 300 DPI images generated using standardized microscopic illumination settings applied to all sections. The quantitation rectangles were positioned such that the posterior side of the rectangle was tangent to the posterior corneal surface just anterior to Descemet's membrane, if one was present, in the analysed specimens. […]

In a further data set the test system is TGF beta-1. As to the kind of experiment: DMR model: IHC TGF beta-1 in posterior stroma. The conditions noted are these: topical and/or oral losartan, one month. In kind it is in vivo, rabbit. How it is done: as §1, with “No removal of Descemet's membrane or endothelium was performed in unwounded sham surgery eyes. Remaining Healon OVD was removed with a Simcoe irrigation and aspiration cannula (Bausch & Lomb, Storz, Rochester, NY, USA) and the anterior chamber was filled with balanced salt solution (BSS). A single 10-0 nylon suture was placed at the incision site to prevent leakage from the anterior chamber. One drop of ciprofloxacin (Alcon, Ft. Worth, TX, USA) was applied to the corneas immediately after surgery and four times a day until the epithelium entry wound healed at approximately 2 days.” left out

Data set [2] has as its system rabbit corneas after Descemetorhexis. As to the kind of experiment: Descemetorhexis (DMR) model: standardized slit lamp photographs, ImageJ intensity of central opacity. In kind it is in vivo. The conditions noted are these: one month; for intensity of opacity in a 2.5 mm circle of central cornea (ImageJ) vs DMR vehicle or DMR oral losartan groups: P<0.05. The protocol: All procedures involving animals were approved by the Institutional Animal Care and Use Committee (IACUC) at the Cleveland Clinic Foundation (Cleveland, OH, USA) and the Animal Care and Use Review Office of the Department of the Army (Fort Detrick, MD). All animals were treated in accordance with the tenets of the ARVO Statement for the Use of Animals in Ophthalmic and Vision Research. Twenty-eight 10- to 15-week-old female New Zealand White rabbits weighing 2.5 to 3.0 kg each were included in this study—four in each group.
as §1, §2
After one month of treatment, study eyes were dilated with two drops of 1% tropicamide (Akom Co., Lake Forest, IL) for thirty minutes. After general anaesthesia, the study eye in each rabbit had standardized slit lamp photographs at 20× magnification with a Haag Streit (Mason, OH, USA) BX900 slit lamp photography system using identical lighting position and intensity. For each study eye, the intensity of a 2.5 mm diameter central circle (not including the light reflex, examples shown in FIG. 1) was determined using ImageJ 1.53a analysis software. Statistical comparisons of the intensity of opacity was performed using the Kruskal-Wallis test followed by post-hoc Dunn's-Bonferroni test and p<0.05 was considered statistically significant

The mark [3] stands for this setting: topical losartan and oral losartan.

For `CCCCc1nc(Cl)c(CO)n1Cc1ccc(-c2ccccc2-c2nn[nH]n2)cc1` [losartan], the “corneas in which central corneal neovascularization developed” value in data set [1] is recorded as “two”. The “collagen type IV production in the posterior stroma” value with collagen type IV (oral losartan alone) was “no significant effect”. In addition, the “collagen type IV localization in posterior stroma (IHC)” value with collagen type IV (topical losartan alone) is on record as “primarily detected adjacent to the posterior surfaces”. In the data set with collagen type IV (setting [3]), the “collagen type IV vs DMR corneas treated with topical losartan alone” value is “not different”. In addition, the “posterior stromal collagen type IV production compared to topical vehicle and oral vehicle (ImageJ intensity)” value in the data set with collagen type IV (setting [3]) and in the data set with collagen type IV (topical losartan) was “significantly decreased” throughout. In addition, the “levels of TGF beta-1 in the posterior stroma or at the posterior stromal surface compared to vehicle-treated corneas” value in the data set on TGF beta-1 is listed as “No effect”. The “intensity of opacity in the central cornea, topical vs topical and oral losartan” value in data set [2] (DMR) is reported as “no significant difference”. Moreover, in data set [2] (DMR, oral 5 mg/kg three times a day), the “scarring fibrosis and neovascularization compared to DMR vehicle control corneas” value is “no difference”. Moreover, the “changes in corneal opacity and neovascularization vs topical losartan alone” value in data set [2] (DMR, topical 0.4 mg/ml six times per day + oral 5 mg/kg three times a day) is recorded as “not different”. The “scarring fibrosis (slit lamp)” value in data set [2] (DMR, topical 0.4 mg/ml six times per day) is on record as “overall decrease”. Moreover, the “intensity of opacity in a 2.5 mm circle of central cornea (ImageJ) vs DMR vehicle or DMR oral losartan groups” value is on record as “significant decrease” in data set [2] (DMR, topical losartan and oral losartan); “significant decrease” in data set [2] (DMR, topical losartan). The “corneal neovascularization after Descemetorhexis” value in data set [2] (DMR, topical losartan) was “reduced”. Moreover, the “transparency of sham unwounded corneas” value in data set [2] (0.4 mg/ml topical losartan six times per day) and in data set [2] (oral 5 mg/kg losartan three times per day) was “no effect” in each case.
